# Laboratory results published in ChEMBL document CHEMBL2390858, “Design, synthesis and anti-tuberculosis activity of 1-adamantyl-3-heteroaryl ureas with improved in vitro pharmacokinetic properties” (Bioorg Med Chem, 2013).
# System: Proteus vulgaris
# Assay: microbe, parasite or virus in culture
# Conditions: not given
row,SMILES,MIC
1,O=C(Nc1ncncn1)NC12CC3CC(CC(C3)C1)C2,> 200 µg/mL
2,CCn1ccc(NC(=O)NC23CC4CC(CC(C4)C2)C3)n1,> 200 µg/mL
3,O=C(Nc1ccccn1)NC12CC3CC(CC(C3)C1)C2,> 200 µg/mL
4,O=C(Nc1ncccn1)NC12CC3CC(CC(C3)C1)C2,> 200 µg/mL

# System: Staphylococcus aureus
# Assay: microbe, parasite or virus in culture
# Conditions: ATCC 29213
row,SMILES,MIC
1,O=C(Nc1ncncn1)NC12CC3CC(CC(C3)C1)C2,> 200 µg/mL
2,CCn1ccc(NC(=O)NC23CC4CC(CC(C4)C2)C3)n1,> 200 µg/mL
3,O=C(Nc1ncccn1)NC12CC3CC(CC(C3)C1)C2,> 200 µg/mL

# System: Enterococcus faecalis
# Assay: microbe, parasite or virus in culture
# Conditions: not given
row,SMILES,MIC
1,O=C(Nc1ncncn1)NC12CC3CC(CC(C3)C1)C2,> 200 µg/mL
2,CCn1ccc(NC(=O)NC23CC4CC(CC(C4)C2)C3)n1,> 200 µg/mL
3,O=C(Nc1ncccn1)NC12CC3CC(CC(C3)C1)C2,> 200 µg/mL

# System: not given
# Assay: not given
# Conditions: buffer, 18 h, pH 7.4
row,SMILES,solubility
1,O=C(Nc1ncncn1)NC12CC3CC(CC(C3)C1)C2,7.2 µg/mL
2,CCn1ccc(NC(=O)NC23CC4CC(CC(C4)C2)C3)n1,10.5 µg/mL
3,O=C(Nc1ccccn1)NC12CC3CC(CC(C3)C1)C2,1.4 µg/mL
4,O=C(Nc1ncccn1)NC12CC3CC(CC(C3)C1)C2,6.9 µg/mL

# System: Staphylococcus aureus
# Assay: microbe, parasite or virus in culture
# Conditions: NRS70
row,SMILES,MIC
1,O=C(Nc1ncncn1)NC12CC3CC(CC(C3)C1)C2,> 200 µg/mL
2,CCn1ccc(NC(=O)NC23CC4CC(CC(C4)C2)C3)n1,200 µg/mL
3,O=C(Nc1ncccn1)NC12CC3CC(CC(C3)C1)C2,> 200 µg/mL

# System: Bacillus subtilis
# Assay: microbe, parasite or virus in culture
# Conditions: not given
row,SMILES,MIC
1,O=C(Nc1ncncn1)NC12CC3CC(CC(C3)C1)C2,> 200 µg/mL
2,CCn1ccc(NC(=O)NC23CC4CC(CC(C4)C2)C3)n1,200 µg/mL
3,O=C(Nc1ncccn1)NC12CC3CC(CC(C3)C1)C2,> 200 µg/mL

# System: Acinetobacter
# Assay: microbe, parasite or virus in culture
# Conditions: not given
row,SMILES,MIC
1,O=C(Nc1ncncn1)NC12CC3CC(CC(C3)C1)C2,> 200 µg/mL
2,CCn1ccc(NC(=O)NC23CC4CC(CC(C4)C2)C3)n1,> 200 µg/mL
3,O=C(Nc1ccccn1)NC12CC3CC(CC(C3)C1)C2,> 200 µg/mL
4,O=C(Nc1ncccn1)NC12CC3CC(CC(C3)C1)C2,> 200 µg/mL

# Biological target: T1, Bifunctional epoxide hydrolase 2 (Homo sapiens, UniProt P34913)
# T1 sequence (P34913 whole entry): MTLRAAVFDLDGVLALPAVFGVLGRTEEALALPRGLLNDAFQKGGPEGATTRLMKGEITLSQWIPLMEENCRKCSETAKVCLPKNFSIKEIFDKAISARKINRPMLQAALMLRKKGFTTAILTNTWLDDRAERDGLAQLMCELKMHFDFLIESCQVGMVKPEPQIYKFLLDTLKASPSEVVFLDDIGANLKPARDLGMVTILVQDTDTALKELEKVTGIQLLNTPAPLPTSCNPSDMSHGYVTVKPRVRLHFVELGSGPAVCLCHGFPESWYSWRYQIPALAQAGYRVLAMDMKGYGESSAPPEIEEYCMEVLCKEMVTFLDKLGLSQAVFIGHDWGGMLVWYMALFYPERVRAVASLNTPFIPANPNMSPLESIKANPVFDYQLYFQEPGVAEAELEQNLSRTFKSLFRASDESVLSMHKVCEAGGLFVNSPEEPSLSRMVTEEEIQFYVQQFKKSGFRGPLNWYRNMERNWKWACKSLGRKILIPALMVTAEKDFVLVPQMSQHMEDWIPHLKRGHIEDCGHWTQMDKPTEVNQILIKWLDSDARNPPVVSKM
# Assay: not given
# Conditions: not given
row,SMILES,IC50
1,O=C(Nc1ncncn1)NC12CC3CC(CC(C3)C1)C2,79 nM
2,CCn1ccc(NC(=O)NC23CC4CC(CC(C4)C2)C3)n1,884 nM
3,O=C(Nc1ccccn1)NC12CC3CC(CC(C3)C1)C2,1500 nM
4,O=C(Nc1ncccn1)NC12CC3CC(CC(C3)C1)C2,24000 nM

# System: Burkholderia cepacia
# Assay: microbe, parasite or virus in culture
# Conditions: not given
row,SMILES,MIC
1,O=C(Nc1ncncn1)NC12CC3CC(CC(C3)C1)C2,> 200 µg/mL
2,CCn1ccc(NC(=O)NC23CC4CC(CC(C4)C2)C3)n1,> 200 µg/mL
3,O=C(Nc1ncccn1)NC12CC3CC(CC(C3)C1)C2,> 200 µg/mL

# System: Mycobacterium tuberculosis
# Assay: microbe, parasite or virus in culture
# Conditions: H37Rv, 168 h
row,SMILES,MIC
1,O=C(Nc1ncncn1)NC12CC3CC(CC(C3)C1)C2,125 µg/mL
2,CCn1ccc(NC(=O)NC23CC4CC(CC(C4)C2)C3)n1,25 µg/mL
3,O=C(Nc1ncccn1)NC12CC3CC(CC(C3)C1)C2,200 µg/mL

# System: Streptococcus pneumoniae
# Assay: microbe, parasite or virus in culture
# Conditions: not given
row,SMILES,MIC
1,O=C(Nc1ncncn1)NC12CC3CC(CC(C3)C1)C2,> 200 µg/mL
2,CCn1ccc(NC(=O)NC23CC4CC(CC(C4)C2)C3)n1,200 µg/mL
3,O=C(Nc1ccccn1)NC12CC3CC(CC(C3)C1)C2,> 200 µg/mL
4,O=C(Nc1ncccn1)NC12CC3CC(CC(C3)C1)C2,> 200 µg/mL

# System: Proteus mirabilis
# Assay: microbe, parasite or virus in culture
# Conditions: not given
row,SMILES,MIC
1,O=C(Nc1ncncn1)NC12CC3CC(CC(C3)C1)C2,> 200 µg/mL
2,CCn1ccc(NC(=O)NC23CC4CC(CC(C4)C2)C3)n1,> 200 µg/mL
3,O=C(Nc1ccccn1)NC12CC3CC(CC(C3)C1)C2,> 200 µg/mL
4,O=C(Nc1ncccn1)NC12CC3CC(CC(C3)C1)C2,> 200 µg/mL

# System: Pseudomonas aeruginosa
# Assay: microbe, parasite or virus in culture
# Conditions: not given
row,SMILES,MIC
1,O=C(Nc1ncncn1)NC12CC3CC(CC(C3)C1)C2,> 200 µg/mL
2,CCn1ccc(NC(=O)NC23CC4CC(CC(C4)C2)C3)n1,> 200 µg/mL
3,O=C(Nc1ccccn1)NC12CC3CC(CC(C3)C1)C2,> 200 µg/mL
4,O=C(Nc1ncccn1)NC12CC3CC(CC(C3)C1)C2,> 200 µg/mL

# System: Streptococcus pyogenes
# Assay: microbe, parasite or virus in culture
# Conditions: not given
row,SMILES,MIC
1,O=C(Nc1ncncn1)NC12CC3CC(CC(C3)C1)C2,> 200 µg/mL
2,CCn1ccc(NC(=O)NC23CC4CC(CC(C4)C2)C3)n1,0.78 µg/mL
3,O=C(Nc1ccccn1)NC12CC3CC(CC(C3)C1)C2,> 200 µg/mL
4,O=C(Nc1ncccn1)NC12CC3CC(CC(C3)C1)C2,> 200 µg/mL

# System: Bacillus anthracis
# Assay: microbe, parasite or virus in culture
# Conditions: Sterne
row,SMILES,MIC
1,O=C(Nc1ncncn1)NC12CC3CC(CC(C3)C1)C2,> 200 µg/mL
2,CCn1ccc(NC(=O)NC23CC4CC(CC(C4)C2)C3)n1,100 µg/mL
3,O=C(Nc1ccccn1)NC12CC3CC(CC(C3)C1)C2,> 200 µg/mL
4,O=C(Nc1ncccn1)NC12CC3CC(CC(C3)C1)C2,> 200 µg/mL

# System: Klebsiella pneumoniae
# Assay: microbe, parasite or virus in culture
# Conditions: not given
row,SMILES,MIC
1,O=C(Nc1ncncn1)NC12CC3CC(CC(C3)C1)C2,> 200 µg/mL
2,CCn1ccc(NC(=O)NC23CC4CC(CC(C4)C2)C3)n1,> 200 µg/mL
3,O=C(Nc1ccccn1)NC12CC3CC(CC(C3)C1)C2,> 200 µg/mL
4,O=C(Nc1ncccn1)NC12CC3CC(CC(C3)C1)C2,> 200 µg/mL

# System: Escherichia coli
# Assay: microbe, parasite or virus in culture
# Conditions: K-12
row,SMILES,MIC
1,O=C(Nc1ncncn1)NC12CC3CC(CC(C3)C1)C2,> 200 µg/mL
2,CCn1ccc(NC(=O)NC23CC4CC(CC(C4)C2)C3)n1,> 200 µg/mL
3,O=C(Nc1ccccn1)NC12CC3CC(CC(C3)C1)C2,> 200 µg/mL
4,O=C(Nc1ncccn1)NC12CC3CC(CC(C3)C1)C2,> 200 µg/mL
